Assay results: ChEMBL document CHEMBL2062508, “Lasionectrin, a naphthopyrone from a Lasionectria sp” (J Nat Prod, 2012)

Test system: Plasmodium falciparum
Assay: Antiplasmodial activity against Plasmodium falciparum 3D7 infected in human erythrocytes by lactate dehydrogenase assay
Format: functional, organism-based

## CCC[C@@H]1C[C@H]2OC(=O)c3c(cc4cc(OC)cc(O)c4c3O)[C@H]2O1 [LASIONECTRIN]
  IC50: 11 µM
